Where two headings read alike, the source gives them in different places. Peptide text beside a SMILES is read from it.
How the values were obtained:
CD8+ T cells [1] = assay: Enrichment of epitope-specific CD8 T cells from healthy donors, epitope-specific IFNg production (ELISA); format: cell-based, human; conditions: positive co-cultures / co-cultures tested
Procedure: (§1) Enrichment of epitope-specific CD8 T cells was performed according to the protocol described by Butler et al., Clin Cancer Res.;13(6):1857-1867 (2007), doi:10.1158/1078-0432, but included the following amendments. CD8+ T lymphocytes were collected from PBMCs by magnetic-activated cell sorting (MACS) according to the CD8 isolation kit (Miltenyi Biotec). CD8+ T cells with >95% purity were subsequently cultured in T cell medium supplemented with IL-2 (36 IU/mL; but no gentamycin) for 1 day, after which expansion cycles started. K562ABC cells (kindly provided by prof. Bruce Levine, University of Pennsylvania, PA) were loaded with 10 μg/ml ROPN1 and/or ROPN1B peptide and incubated for 5 h at RT in serum-free medium, after which cells were washed and fixed with 0,1% paraformaldehyde. After washing, K562ABC cells were suspended at 0.1×10^6/mL and co-cultured with T cells in a 1:20 ratio. IL-2 (36 IU/mL) and IL-15 ([…]) were added at days 1 and 3 days after start of co-culture, and after 6 days, T cells were counted, suspended at 2×10^6/mL and rested for 1 day, after which the next cycle commenced (this schedule continued up to 4 or 5 cycles). Following 4 and 5 cycles, T cells were stained with pMHC multimers (HLA*0201/MLN, Immudex, Copenhagen, Denmark). pMHC-PE were pre-incubated at RT for 10 min followed by incubation with 7AAD, anti-CD3-FITC and anti-CD8-APC for 20 min. Cells were fixed with 1% paraformaldehyde and TCR expression was measured with flow cytometry and analyzed using FlowJoX software. FIG. 4A schematically depicts the procedure to enrich epitope-specific T cells, and obtainthe corresponding TCR genes.
Enriched T cells were tested for ROPN1 and/or ROPN1B epitope-specific IFNY production. To this end, T2 cells (4×10^6/mL) were loaded with peptide (20 ng/mL) for 30 min. T cells (2×10^5) were cultured in a 1:1 ratio with T2 cells in a round bottom 96-wells plate, and the next day supernatant was collected and IFN-γ production was measured with an Enzyme-linked immunosorbent assay (ELISA, Invitrogen) according to manufacturer's protocol (FIG. 4B). T2 cells without peptide were included as a negative control; and staphylococcal enterotoxin B (0.1 μg, Sigma) was used as a positive control.
Enrichment of epitope-specific T cells was performed by co-culturing naïve T cells with CD11c-positive cells that were loaded with peptide. PBMCs were passed through a cell strainer (70 μm) and used for the isolation of naïve T cells and CD11c cells. To isolate CD11c-positive cells (typically dendritic cells, DC), PBMCs were stained for 10 mM at 4° C. with Fc block (10 μL/10^7 PBMCs, BD Pharmingen, Vianen, the Netherlands), after which cells were stained with CD11c-PE antibody (10 μL/10^7 PBMCs, BD Pharmingen) for 30 mM at 4° C., washed, and incubated with PE beads (10 μL/10^7 PBMCs, Miltenyi Biotech, Bergisch Gladbach, Germany) for another […] at 4° C. After washing, cells were dissolved in magnetic-activated cell sorting (MACS) buffer and passed through a MACS LS column (Miltenyi Biotec) to positively select CD11c cells. After selection, CD11c cells were irradiated with 30 Gy, and cultured overnight in a 24-wells plate (1×10^6/mL) in RPMI medium supplemented with 1% human serum (Sanquin), 1% antibiotics, […] L-glutamine, a DC maturation cocktail (a mixture of GM-CSF (10 ng/mL, ImmunoTools, Germany), IL-4 (10 ng/mL, ImmunoTools), LPS (100 ng/mL, Invitrogen, Goteborg, Sweden) and IFNY (10 ng/mL, Preprotech, London, United Kingdom)), as well as peptide (10 pg/mL). Naïve T cells were isolated with use of the Naïve T Cell isolation kit (Miltenyi Biotec) according to the manufacturer's protocol, and suspended in RPMI medium supplemented with 5% human serum (Sanquin), 1% antibiotics, […] L-glutamine and IL-7 (5 ng/mL, BD Pharmingen). The run-through of the naïve T cell selection was frozen down and used for re-stimulation of epitope-specific T cells. […]

HLA-A2 = molecular target: T1, HLA-A2 (Homo sapiens, UniProt P04439, D140Y/D185E/D98H/E176V/E277Q/G131W/G231S/I119V/I121R/I166T/I218V/L300P/L318F/N151K/N90K/P208A/P217A/Q86G/Q94H/R138H/R169H/T345S); assay: HLA-A2 stabilization assay using T2 cells; format: binding; conditions: for binding to HLA-A2: in words, peptides derived from immunopeptidome
T1 construct: The HLA-A2 stabilization assay was performed using T2 cells; endogenous in cells; host or cells: T2 cells (LCLxT lymphoblastoid hybrid cell line 0.1743CEM.T2)

CD8+ T cells [2] = assay: peptide:MHC multimer/tetramer staining of enriched T cells (flow cytometry); format: cell-based, human; conditions: Table 4; enriched T cells after enrichment cycles
Procedure: as §1
Following enrichment, T cells were tested for ROPN1 and/or ROPN1B epitope-specific IFNY production. To this end, T2 cells (1×10^6/mL) were loaded with peptide (20 ng/mL) for 30 min, after which T cells (1×10^5) were cultured in a 1:1 ratio with T2 cells in a round bottom 96-wells plate for 18 h. Supernatant was collected and IFN-γ production was measured with an Enzyme-linked immunosorbent assay (ELISA, BioLegend) according to the manufacturer's protocol (FIG. 9A). T2 cells loaded with an irrelevant peptide were included as a negative control. T cell IFNg production was considered epitope-specific in case levels exceeded 200 pg/ml, and levels were minimally twice as high as for irrelevant peptide (see for full listing of criteria, FIG. 8). T cells that fulfilled these criteria were stained with peptide:MHC (pMHC) tetramers to determine the frequency of epitope-specific T cells. Empty Loadable HLA Tetramers (5 μL, Tetramer shop, Kongens Lyngby, Denmark) were incubated with 0.5 μL peptide (200 μM) for 30 min on ice. Complexes of pMHC were centrifuged (3300 g, 5 min) and incubated with 0.1×10^6 T cells for 15 min at 37° C. in the dark. Next, an antibody cocktail containing CD3-FITC (1:30, BD) and CD8-APC (1:300, eBiosciences) was added and incubated for an additional 30 min at 4° C. in the dark. Finally, T cells were washed twice and fixed with 1% paraformaldehyde (PFA), after which events were acquired with FACSCelesta (BD) and analyzed using FlowJoX software.

[3] = molecular target: T2, HLA-A2 (HLA-A2:01) on T2 cells (human); assay: HLA-A2 stabilization assay on T2 cells (anti-HLA-A2-PE, flow cytometry), single peptide concentration 25 ug/mL [panel E]
T2 construct: detected with anti-HLA-A2 mAb BB7.2

[4] = molecular target: T2, HLA-A2 (HLA-A2:01) on T2 cells; assay: HLA-A2 stabilization assay on T2 cells (anti-HLA-A2-PE, flow cytometry), single peptide concentration [panel D]
[5] = molecular target: T2, HLA-A2 (HLA-A2:01) on T2 cells; assay: HLA-A2 stabilization assay on T2 cells, peptide titration; amplitude relative to that of reference peptide YLE [panel D]
[6] = molecular target: T2, HLA-A2 (HLA-A2:01) on T2 cells; assay: HLA-A2 stabilization assay on T2 cells, peptide titration; amplitude = highest data point corrected for baseline [panel E]
[7] = molecular target: T2, HLA-A2 (HLA-A2:01) on T2 cells; assay: HLA-A2 stabilization assay on T2 cells, peptide titration (Example 2, repeated); column Affinity for HLA.A2.01 (M)
[8] = molecular target: T2, HLA-A2 (HLA-A2:01) on T2 cells; assay: HLA-A2 stabilization assay on T2 cells, peptide titration, flow cytometry with anti-HLA-A2 BB7.2; column Affinity for HLA A2:01 (M)
[9] = Table 2 (Example 1), EC50 of peptide titration on T2 cells, read-out: Affinity for HLA A2:01
[10] = Table 4 (Examples 1 and 2), EC50 of peptide titration on T2 cells, read-out: Affinity for HLA.A2.01
[11] = Table 2 (Example 1), healthy donor T cells
[12] = Example 1, top-ranked epitopes, no legible unit, read-out: EC50 (HLA-A2 binding)

Row | Molecule | T cell responses observed (IFNg) against epitope (CD8+ T cells [1]; Table 4) | EC50 (HLA-A2; [9]) [µM] | EC50 (HLA-A2; [10]) [µM] | pMHC staining % pMHC+ CD8+ in CD3+ (CD8+ T cells [2]) [%] | Minimum stability [3] [fold change over baseline] | Minimum stability [4] [fold change over baseline] | also measured
1 | CC(C)C[C@H](NC(=O)[C@H](C)N)C(=O)N[C@@H](C)C(=O)N[C@@H](CS)C(=O)N[C@@H](CO)C(=O)N[C@@H](C)C(=O)N[C@@H](CC(C)C)C(=O)NCC(=O)N[C@H](C(=O)O)C(C)C (H-ALACSALGV-OH; N-terminus and C-terminus assumed) | 0/4 co-cultures | 3.16 | 2.84 |  |  |  | 
2 | CC[C@H](C)[C@H](NC(=O)[C@H](Cc1ccc(O)cc1)NC(=O)[C@@H](NC(=O)[C@H](Cc1ccc(O)cc1)NC(=O)[C@H](CC(C)C)NC(=O)[C@H](Cc1ccccc1)NC(=O)[C@H](CCC(N)=O)NC(=O)[C@@H](N)Cc1ccccc1)[C@@H](C)O)C(=O)N[C@@H](C)C(=O)O (H-FQFLYTYIA-OH; N-terminus and C-terminus assumed) | 1/4 co-cultures | 3.28 | 3.43 | 0.43 |  |  | T cell responses observed (IFNg) against epitope (CD8+ T cells [1]; [11]): 1/4 co-cultures; EC50 (HLA-A2; [12]): 3.3 µM
3 | CSCC[C@H](NC(=O)[C@@H](N)CCCCN)C(=O)N[C@@H](CC(C)C)C(=O)N[C@@H](CCCCN)C(=O)N[C@@H](CCC(=O)O)C(=O)N[C@@H](Cc1ccccc1)C(=O)N[C@@H](C)C(=O)N[C@@H](CCCCN)C(=O)N[C@@H](C)C(=O)O (H-KMLKEFAKA-OH; N-terminus and C-terminus assumed) | 0/2 co-cultures | 91.2 | 38.2 |  |  |  | 
4 | CC[C@H](C)[C@H](NC(=O)[C@H](CCCCN)NC(=O)[C@H](CC(C)C)NC(=O)[C@@H](NC(=O)[C@@H](N)CCCCN)[C@@H](C)O)C(=O)N[C@H](C(=O)N[C@@H](CS)C(=O)N[C@@H](CCC(=O)O)C(=O)N[C@H](C(=O)O)C(C)C)C(C)C (H-KTLKIVCEV-OH; N-terminus and C-terminus assumed) | 2/4 co-cultures | 4.35 | 4.4 | 0.28 |  |  | T cell responses observed (IFNg) against epitope (CD8+ T cells [1]; [11]): 2/4 co-cultures; EC50 (HLA-A2; [12]): 4.4 µM
5 | CC[C@H](C)[C@H](NC(=O)[C@@H](NC(=O)[C@@H](N)CC(C)C)[C@@H](C)CC)C(=O)N[C@@H](CCCNC(=N)N)C(=O)N[C@@H](C)C(=O)N[C@@H](CCC(=O)O)C(=O)N[C@@H](CCC(=O)O)C(=O)N[C@@H](CC(C)C)C(=O)N[C@@H](C)C(=O)N[C@@H](CCC(N)=O)C(=O)N[C@@H](CCSC)C(=O)O (H-LIIRAEELAQM-OH; N-terminus and C-terminus assumed) | 1/7 co-cultures | 6.99 | 6.99 | 0.60 |  |  | binding to HLA-A2 (HLA-A2): did bind to HLA-A2 with high affinity
6 | CC(C)C[C@H](NC(=O)[C@H](C)NC(=O)[C@H](CO)NC(=O)[C@H](CS)NC(=O)[C@H](C)NC(=O)[C@H](CC(C)C)NC(=O)[C@H](C)NC(=O)[C@H](CC(C)C)NC(=O)[C@@H](N)Cc1ccccc1)C(=O)O [FLALACSAL] (H-FLALACSAL-OH; N-terminus and C-terminus assumed) | 2/5 co-cultures | 5.05 | 4.5 | 0.077 |  |  | T cell responses observed (IFNg) against epitope (CD8+ T cells [1]; [11]): 2/5 co-cultures; EC50 (HLA-A2; Example 1, top-ranked epitopes, read-out: EC50 (HLA-A2 binding)): 5.1 µM
7 | AELTPELLKI (Epitope 16) [eluted 10-mer, mapped in silico to HLA-B40:01] |  |  |  |  |  |  | binding to HLA-A2 (HLA-A2): did not bind to HLA-A2
8 | GLPRIPFST (ROPN1B, predicted) |  |  |  |  | 1.06 | 1.06 | 
9 | LIIRAEELAQM (11-mer found by immunopeptidomics; tested as synthetic peptide) [Epitope 5 peptide LIIRAEELAQM of ROPN1 and ROPN1B] |  |  |  |  | 1.27 | 1.38 | Amplitude [5]: 0.918 relative to YLE; Amplitude [6]: 3170 geometric mean normalized to baseline; EC50 [7]: 6.99 µM; EC50 [8]: 6.99 µM
10 | HVSRMLNYI (ROPN1B, predicted) |  |  |  |  | 1.09 | 1.09 | 
11 | MLNYIEQEV (Synthetic peptide (ThinkPeptides/ProImmune)) [Epitope 1 (MLN) peptide MLNYIEQEV of ROPN1B] |  |  |  |  | 1.13 | 1.4 | Amplitude [5]: 0.935 relative to YLE; Amplitude [6]: 3450 geometric mean normalized to baseline; EC50 [7]: 4.82 µM; EC50 [8]: 6.56 µM
12 | FLALACSAL (Synthetic peptide) [Epitope 2 peptide FLALACSAL of ROPN1 and ROPN1B] |  |  |  |  | 1.62 | 1.41 | Amplitude [5]: 0.95 relative to YLE; Amplitude [6]: 3800 geometric mean normalized to baseline; EC50 [7]: 4.5 µM; EC50 [8]: 5.05 µM

From patent US20240131155A1, “T CELLS FOR USE IN THERAPY” (Erasmus University Medical Center Rotterdam, priority 2021, published 2024)
